For data set [1] the following is noted: background statement, cited from earlier work; for solubility in alcohol: alcohol(s).
The nature of data set [2]: solubility in water, alcohols and methylene chloride. Type of data set: physicochemical. As to conditions: description of product and starting materials.

Counter-ions that a name gives are not always drawn. Like-named read-outs stand apart in the source and are kept apart here.

Take `CCN(CC)CCOCCOC(=O)C1(c2ccccc2)CCCC1` [carbetapentane citrate]: in data set [1], the solubility in alcohol entry is “slightly soluble” and the solubility in water result is listed as “freely soluble”.

Regarding `CCN(CC)CCOCCOC(=O)C1(c2ccccc2)CCCC1` [carbetapentane, 2-(diethylaminoethoxy)ethyl-1-phenyl-1-cyclopentanecarboxylate], the solubility in water entry in data set [1] was “insolubility”. In data set [2], the solubility in alcohols result was “soluble”, the “solubility in methylene chloride” value is “soluble” and the solubility in water result is “insoluble”.

Take `O=C(OC[C@H]1O[C@@H](OC(=O)c2cc(O)c(O)c(OC(=O)c3cc(O)c(O)c(O)c3)c2)[C@H](OC(=O)c2cc(O)c(O)c(OC(=O)c3cc(O)c(O)c(O)c3)c2)[C@@H](OC(=O)c2cc(O)c(O)c(OC(=O)c3cc(O)c(O)c(O)c3)c2)[C@@H]1OC(=O)c1cc(O)c(O)c(OC(=O)c2cc(O)c(O)c(O)c2)c1)c1cc(O)c(O)c(OC(=O)c2cc(O)c(O)c(O)c2)c1` [tannic acid]: in data set [1], the solubility in alcohol result is recorded as “highly soluble” and the solubility in water entry was “highly soluble”. Further, in data set [2], the solubility in alcohols entry was “soluble”, the “solubility in methylene chloride” value was “insoluble” and the solubility in water entry is “soluble”.

For the compound carbetapentane tannate, in data set [2], the solubility in alcohols entry is on record as “soluble”, the “solubility in methylene chloride” value was “insoluble” and the solubility in water entry was “slightly soluble”.

The values above are taken from patent publication US6455727B1, “Process for preparing carbetapentane tannate” (Jame Fine Chemicals, Inc., priority 2001, dated 2002).
